Assay results as given in patent US4477443A, “Tylosin derivatives, their preparation and pharmaceutical compositions containing them” (Zaidan Hojin Biselbutsu Kagaku Kenkyu Kai (Microbial …, priority 1981, dated 1984).
Converted amounts (≈) assume the structure as drawn. Like-named read-outs stand apart in the source and are kept apart here.

How the values were obtained:
Type in all cases: cell-based
[1] = tested on: Kleb. pneumoniae PCI 602; assay: antimicrobial activity (MIC), Table I; conditions: Klebsiella pneumoniae, PCI602; Kleb. pneumoniae PCI 602; read-out: MIC
[2] = tested on: Sarcina lutea PCI 1001; assay: antimicrobial activity (MIC), Table I; conditions: Micrococcus luteus, PCI1001; Sarcina lutea PCI 1001; read-out: MIC
[3] = tested on: Staph. aureus 209 P; assay: antimicrobial activity (MIC), Table I; conditions: Staphylococcus aureus; Staph. aureus 209 P; read-out: MIC
[4] = tested on: Shigella dysenteriae JS 11910; assay: antimicrobial activity (MIC), Table I; conditions: JS11910
[5] = tested on: Staph. aureus 193; assay: antimicrobial activity (MIC), Table I; conditions: Staphylococcus aureus; Staph. aureus 193; read-out: MIC
[6] = tested on: E. coli NIHJ; assay: antimicrobial activity (MIC), Table I; conditions: Escherichia coli; E. coli NIHJ; read-out: MIC
[7] = tested on: Coryn. bovis 1810; assay: antimicrobial activity (MIC), Table I; conditions: Corynebacterium bovis; Coryn. bovis 1810; read-out: MIC
[8] = tested on: E. coli K-12 R-5; assay: antimicrobial activity (MIC), Table I; conditions: Escherichia coli, K12R5; E. coli K-12 R-5; read-out: MIC
[9] = tested on: Sal. enteritidis 1891; assay: antimicrobial activity (MIC), Table I; conditions: Salmonella enterica; Sal. enteritidis 1891; read-out: MIC
[10] = tested on: Staph. aureus MS 9861; assay: antimicrobial activity (MIC), Table I; conditions: Staphylococcus aureus, MS9861; Staph. aureus MS 9861; read-out: MIC
[11] = tested on: E. coli K-12 ML 1410; assay: antimicrobial activity (MIC), Table I; conditions: Escherichia coli, K12ML1410
[12] = tested on: E. coli K-12; assay: antimicrobial activity (MIC), Table I; conditions: Escherichia coli, K12; E. coli K-12; read-out: MIC
[13] = tested on: Pro. vulgaris OX-19; assay: antimicrobial activity (MIC), Table I; conditions: Proteus vulgaris, OX19
[14] = tested on: E. coli K-12 LA 290 R 55; assay: antimicrobial activity (MIC), Table I; conditions: Escherichia coli
[15] = tested on: B. subtilis NRRL B-558; assay: antimicrobial activity (MIC), Table I; conditions: Bacillus subtilis, NRRLB558; B. subtilis NRRL B-558; read-out: MIC
[16] = tested on: Staph. aureus 226; assay: antimicrobial activity (MIC), Table II; conditions: Staphylococcus aureus; Staph. aureus 226; read-out: MIC
[17] = tested on: B. cereus; assay: antimicrobial activity (MIC), Table II; conditions: Bacillus cereus
[18] = tested on: Staph. aureus ATCC 6538P; assay: antimicrobial activity (MIC), Table II; conditions: Staphylococcus aureus, ATCC6538P; Staph. aureus ATCC 6538P; read-out: MIC
[19] = tested on: Staph. aureus KC-11; assay: antimicrobial activity (MIC), Table II; conditions: Staphylococcus aureus, KC11; Staph. aureus KC-11; read-out: MIC
[20] = tested on: Staph. epidermidis IID 886; assay: antimicrobial activity (MIC), Table II; conditions: Staphylococcus epidermidis, IID886
[21] = tested on: B. subtilis ATCC 6633; assay: antimicrobial activity (MIC), Table II; conditions: Bacillus subtilis, ATCC6633
[22] = Pro. vulgaris OX-19, read-out: MIC
[23] = E. coli K-12 ML 1410, read-out: MIC

| SMILES | MIC [1] | MIC [2] | MIC [3] | MIC [4] | MIC [5] | MIC [6] | MIC [7] | MIC [8] | MIC [9] | MIC [10] | MIC [11] | MIC [12] | MIC [13, 22] | MIC [14] | MIC [15] | MIC [11, 23] | MIC [13] | other results |
| --- | --- | --- | --- | --- | --- | --- | --- | --- | --- | --- | --- | --- | --- | --- | --- | --- | --- | --- |
| CCC1OC(=O)CC(O)C(C)C(OC2OC(C)C(O)C(N(C)C)C2O)C(CC=O)CC(C)C(=O)C=CC(C)=CC1CN1CCCCC1 (centres unmarked) [Example 13, 23-deoxy-23-piperidinomycaminosyl tylonolide] | 0.39 µg/mL (≈ 0.587 µM) | < 0.2 µg/mL | 0.39 µg/mL (≈ 0.587 µM) | < 0.2 µg/mL | 0.39 µg/mL (≈ 0.587 µM) | 0.78 µg/mL (≈ 1.17 µM) | < 0.2 µg/mL | 1.56 µg/mL (≈ 2.35 µM) | 0.78 µg/mL (≈ 1.17 µM) | 0.78 µg/mL (≈ 1.17 µM) | 3.12 µg/mL (≈ 4.69 µM) | 1.56 µg/mL (≈ 2.35 µM) | 1.56 µg/mL (≈ 2.35 µM) | 1.56 µg/mL (≈ 2.35 µM) | 0.39 µg/mL (≈ 0.587 µM) | – | – | – |
| CCC1OC(=O)CC(O)C(C)C(OC2OC(C)CC(N(C)C)C2O)C(CC=O)CC(C)C(=O)C=CC(C)=CC1CN1CCCCCC1 (centres unmarked) [Example 18, 23,4'-dideoxy-23-hexamethyleneiminomycaminosyl tylonolide] | 0.39 µg/mL (≈ 0.588 µM) | < 0.2 µg/mL | < 0.2 µg/mL | < 0.2 µg/mL | < 0.2 µg/mL | 0.39 µg/mL (≈ 0.588 µM) | < 0.2 µg/mL | 0.78 µg/mL (≈ 1.18 µM) | < 0.2 µg/mL | 0.78 µg/mL (≈ 1.18 µM) | – | 0.78 µg/mL (≈ 1.18 µM) | 0.78 µg/mL (≈ 1.18 µM) | 0.78 µg/mL (≈ 1.18 µM) | < 0.2 µg/mL | 0.78 µg/mL (≈ 1.18 µM) | – | – |
| CCC1OC(=O)CC(O)C(C)C(OC2OC(C)CC(N(C)C)C2O)C(CC=O)CC(C)C(=O)C=CC(C)=CC1CN(CC)CC (centres unmarked) [Example 10, 23,4'-dideoxy-23-diethylaminomycaminosyl tylonolide] | 0.2 µg/mL (≈ 0.314 µM) | < 0.2 µg/mL | < 0.2 µg/mL | < 0.2 µg/mL | < 0.2 µg/mL | < 0.2 µg/mL | < 0.2 µg/mL | 0.39 µg/mL (≈ 0.612 µM) | 0.39 µg/mL (≈ 0.612 µM) | 0.78 µg/mL (≈ 1.22 µM) | – | 0.39 µg/mL (≈ 0.612 µM) | 0.39 µg/mL (≈ 0.612 µM) | 0.39 µg/mL (≈ 0.612 µM) | < 0.2 µg/mL | 0.39 µg/mL (≈ 0.612 µM) | – | – |
| CCC1OC(=O)CC(O)C(C)C(OC2OC(C)C(O)C(N(C)C)C2O)C(CC=O)CC(C)C(=O)C=CC(C)=CC1CN(CC)CC (centres unmarked) [Example 5, 23-deoxy-23-diethylamino mycaminosyl tylonolide] | 1.56 µg/mL (≈ 2.39 µM) | < 0.2 µg/mL | 0.78 µg/mL (≈ 1.19 µM) | 1.56 µg/mL (≈ 2.39 µM) | 0.78 µg/mL (≈ 1.19 µM) | 1.56 µg/mL (≈ 2.39 µM) | 0.78 µg/mL (≈ 1.19 µM) | 1.56 µg/mL (≈ 2.39 µM) | 3.12 µg/mL (≈ 4.78 µM) | 12.5 µg/mL (≈ 19.1 µM) | 3.12 µg/mL (≈ 4.78 µM) | 1.56 µg/mL (≈ 2.39 µM) | – | 3.12 µg/mL (≈ 4.78 µM) | 0.78 µg/mL (≈ 1.19 µM) | – | 1.56 µg/mL (≈ 2.39 µM) | – |
| CCCN(CCC)CC1C=C(C)C=CC(=O)C(C)CC(CC=O)C(OC2OC(C)C(O)C(N(C)C)C2O)C(C)C(O)CC(=O)OC1CC (centres unmarked) [Example 6, 23-deoxy-23-dipropylaminomycaminosyl tylonolide] | 0.78 µg/mL (≈ 1.15 µM) | < 0.2 µg/mL | < 0.2 µg/mL | 0.39 µg/mL (≈ 0.573 µM) | < 0.2 µg/mL | 0.78 µg/mL (≈ 1.15 µM) | < 0.2 µg/mL | 1.56 µg/mL (≈ 2.29 µM) | 1.56 µg/mL (≈ 2.29 µM) | 1.56 µg/mL (≈ 2.29 µM) | 3.12 µg/mL (≈ 4.58 µM) | 1.56 µg/mL (≈ 2.29 µM) | 1.56 µg/mL (≈ 2.29 µM) | 1.56 µg/mL (≈ 2.29 µM) | 0.39 µg/mL (≈ 0.573 µM) | – | – | – |
| CCC1OC(=O)CC(O)C(C)C(OC2OC(C)CC(N(C)C)C2O)C(CC=O)CC(C)C(=O)C=CC(C)=CC1CN1CCCCCCC1 (centres unmarked) [Example 19, 23,4'-dideoxy-23-heptamethyleneiminomycaminosyl tylonolide] | 0.2 µg/mL (≈ 0.295 µM) | < 0.2 µg/mL | < 0.2 µg/mL | < 0.2 µg/mL | 0.2 µg/mL (≈ 0.295 µM) | 0.39 µg/mL (≈ 0.576 µM) | < 0.2 µg/mL | 0.78 µg/mL (≈ 1.15 µM) | < 0.2 µg/mL | 0.78 µg/mL (≈ 1.15 µM) | – | 0.78 µg/mL (≈ 1.15 µM) | – | 0.39 µg/mL (≈ 0.576 µM) | 0.39 µg/mL (≈ 0.576 µM) | 0.78 µg/mL (≈ 1.15 µM) | 0.39 µg/mL (≈ 0.576 µM) | – |
| CC[C@H]1OC(=O)C[C@@H](O)[C@H](C)[C@@H](O[C@@H]2O[C@H](C)[C@@H](O[C@H]3C[C@@](C)(O)[C@@H](O)[C@H](C)O3)[C@H](N(C)C)[C@H]2O)[C@@H](CC=O)C[C@@H](C)C(=O)/C=C/C(C)=C/[C@@H]1CO[C@@H]1O[C@H](C)[C@@H](O)[C@@H](OC)[C@H]1OC [Tylosin] | – | < 0.2 µg/mL | – | – | 0.78 µg/mL (≈ 0.851 µM) | – | 0.2 µg/mL (≈ 0.218 µM) | > 100 µg/mL | – | – | > 100 µg/mL | > 100 µg/mL | – | > 100 µg/mL | – | – | > 100 µg/mL | MIC [16]: 1.56 µg/mL (≈ 1.7 µM); MIC [17]: 0.78 µg/mL (≈ 0.851 µM); MIC [18]: 1.56 µg/mL (≈ 1.7 µM); MIC [19]: 1.56 µg/mL (≈ 1.7 µM); MIC [20]: 1.56 µg/mL (≈ 1.7 µM); MIC [21]: 0.78 µg/mL (≈ 0.851 µM) |
| CCC1OC(=O)CC(O)C(C)C(OC2OC(C)CC(N(C)C)C2O)C(CC=O)CC(C)C(=O)C=CC(C)=CC1CN(C)C (centres unmarked) [Example 9, 23,4'-dideoxy-23-dimethylaminomycaminosyl tylonolide] | 0.2 µg/mL (≈ 0.329 µM) | 0.2 µg/mL (≈ 0.329 µM) | < 0.2 µg/mL | < 0.2 µg/mL | < 0.2 µg/mL | < 0.2 µg/mL | 0.2 µg/mL (≈ 0.329 µM) | 0.39 µg/mL (≈ 0.641 µM) | < 0.2 µg/mL | 0.39 µg/mL (≈ 0.641 µM) | 0.39 µg/mL (≈ 0.641 µM) | 0.39 µg/mL (≈ 0.641 µM) | – | 0.39 µg/mL (≈ 0.641 µM) | < 0.2 µg/mL | – | 0.78 µg/mL (≈ 1.28 µM) | – |
